According to patent US6492137B1, “Response element compositions and assays employing same” (The Salk Institute for Biological Studies, priority 1989, dated 2002):

Key:
endogenous RA receptor = assay: Delta-MTV-CAT constructs, RA induction in CV-1 cells without cotransfected RAR expression vector; format: cell-based, monkey
Description: Cells were transfected in 10 cm dishes with 10 μg of DNA containing 5 μg of reporter plasmid, 1-2 μg of either RSV-LUC (a), or RSV-βGAL or pCH110 (c and d), pGEM4 as carrier DNA, and for the experiments shown in a and d, 1 μg of RSV-RAR expression vector or the same amount of an RSV vector generating a nonsense transcript. Cells were harvested 1 day after addition of retinoic acid. All CAT assays represent equivalent amounts of β-galactosidase activity; β-GAL assays were normalized to luciferase activity.

RAR = biological target: T1, RAR (Homo sapiens, UniProt P10276); assay: Delta-MTV constructs, RA induction in CV-1 cells with cotransfected RAR expression vector; format: cell-based; conditions: Delta-MTV-CAT constructs; CV-1 cells
T1 construct: expressed in transfected cells; host or cells: CV-1 (monkey kidney)
T1 sequence (P10276 1-462): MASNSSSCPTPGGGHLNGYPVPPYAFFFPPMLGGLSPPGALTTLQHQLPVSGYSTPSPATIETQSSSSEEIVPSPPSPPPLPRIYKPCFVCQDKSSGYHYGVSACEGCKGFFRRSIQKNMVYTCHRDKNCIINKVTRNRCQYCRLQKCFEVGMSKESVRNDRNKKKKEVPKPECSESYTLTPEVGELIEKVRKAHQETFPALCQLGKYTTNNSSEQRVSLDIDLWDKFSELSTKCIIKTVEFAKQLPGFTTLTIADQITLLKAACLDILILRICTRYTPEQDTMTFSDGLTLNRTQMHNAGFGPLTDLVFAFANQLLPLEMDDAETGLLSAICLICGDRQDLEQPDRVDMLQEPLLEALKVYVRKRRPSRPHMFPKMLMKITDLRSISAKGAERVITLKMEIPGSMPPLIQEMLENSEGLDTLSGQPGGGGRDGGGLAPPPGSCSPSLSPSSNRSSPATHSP

ER = biological target: T2, ER (Homo sapiens, UniProt P03372); assay: Cotransfection of ER with construct βRE1 in CV-1 cells; format: cell-based; conditions: absence or addition of the appropriate ligand
T2 construct: expressed in transfected cells; host or cells: CV-1 (monkey kidney)
T2 sequence (P03372 1-595): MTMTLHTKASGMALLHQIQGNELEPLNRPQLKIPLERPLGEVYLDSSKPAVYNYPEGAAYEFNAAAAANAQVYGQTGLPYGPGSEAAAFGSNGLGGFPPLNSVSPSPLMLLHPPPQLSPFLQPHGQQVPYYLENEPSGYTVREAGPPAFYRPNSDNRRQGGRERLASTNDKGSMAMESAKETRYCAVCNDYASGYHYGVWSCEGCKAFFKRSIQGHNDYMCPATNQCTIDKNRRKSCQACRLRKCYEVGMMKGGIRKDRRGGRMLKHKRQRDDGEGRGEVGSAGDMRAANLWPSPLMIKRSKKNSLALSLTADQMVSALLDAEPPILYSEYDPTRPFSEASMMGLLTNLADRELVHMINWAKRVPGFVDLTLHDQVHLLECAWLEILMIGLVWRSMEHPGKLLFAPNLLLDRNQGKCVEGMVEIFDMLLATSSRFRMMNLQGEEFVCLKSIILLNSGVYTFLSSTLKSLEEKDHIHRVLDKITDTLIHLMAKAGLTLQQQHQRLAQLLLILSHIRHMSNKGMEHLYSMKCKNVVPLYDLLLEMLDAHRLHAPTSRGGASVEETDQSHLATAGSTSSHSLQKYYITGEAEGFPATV
Description: (§1) Inspection of the sequences of βRE1, βRE2, and βRE3 (see FIG. 2b) identifies a tandem repeat of the 6 bp motif. The center to center separation of 11 bp between these repeats is one turn of the DNA helix. […] Apparently, a single half site element of the RARβ gene would reciprocally be responsive to the TR, ER, and/or other members of the receptor superfamily.

GR = biological target: T3, GR (Homo sapiens, UniProt P04150); assay: Cotransfection of GR with construct βRE1 in CV-1 cells; format: cell-based; conditions: absence or addition of the appropriate ligand
T3 construct: expressed in transfected cells; host or cells: CV-1 (monkey kidney)
T3 sequence (P04150 1-777): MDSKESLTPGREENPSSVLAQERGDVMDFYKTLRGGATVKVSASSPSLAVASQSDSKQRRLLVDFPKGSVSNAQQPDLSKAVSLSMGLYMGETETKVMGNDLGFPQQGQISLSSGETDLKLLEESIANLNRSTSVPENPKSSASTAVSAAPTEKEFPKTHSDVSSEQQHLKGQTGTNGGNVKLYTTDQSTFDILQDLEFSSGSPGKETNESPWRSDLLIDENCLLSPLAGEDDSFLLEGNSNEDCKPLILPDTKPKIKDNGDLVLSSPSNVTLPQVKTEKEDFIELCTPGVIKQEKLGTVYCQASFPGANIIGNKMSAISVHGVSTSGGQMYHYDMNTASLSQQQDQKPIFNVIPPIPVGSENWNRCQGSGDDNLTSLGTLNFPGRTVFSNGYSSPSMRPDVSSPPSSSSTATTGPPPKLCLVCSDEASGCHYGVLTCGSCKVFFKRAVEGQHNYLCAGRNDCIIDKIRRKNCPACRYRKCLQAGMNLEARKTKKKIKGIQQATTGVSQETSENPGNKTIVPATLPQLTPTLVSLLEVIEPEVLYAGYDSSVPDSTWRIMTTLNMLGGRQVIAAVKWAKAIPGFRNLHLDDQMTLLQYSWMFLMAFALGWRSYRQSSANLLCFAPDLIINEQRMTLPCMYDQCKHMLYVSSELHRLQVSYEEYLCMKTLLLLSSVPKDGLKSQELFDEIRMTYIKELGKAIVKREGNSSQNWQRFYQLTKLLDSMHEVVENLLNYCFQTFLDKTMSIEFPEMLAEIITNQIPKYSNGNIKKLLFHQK
Description: as §1

TR = assay: Cotransfection of TR with construct βRE1 in CV-1 cells; format: cell-based; conditions: cognate ligand
Description: as §1

[1] = biological target: T4, vitamin D receptor (VD3R) (Homo sapiens, UniProt P11473); assay: Cotransfection of vitamin D receptor with construct βRE1 in CV-1 cells; format: cell-based; conditions: cognate ligand
T4 construct: expressed in transfected cells; host or cells: CV-1 (monkey kidney)
T4 sequence (P11473 1-427): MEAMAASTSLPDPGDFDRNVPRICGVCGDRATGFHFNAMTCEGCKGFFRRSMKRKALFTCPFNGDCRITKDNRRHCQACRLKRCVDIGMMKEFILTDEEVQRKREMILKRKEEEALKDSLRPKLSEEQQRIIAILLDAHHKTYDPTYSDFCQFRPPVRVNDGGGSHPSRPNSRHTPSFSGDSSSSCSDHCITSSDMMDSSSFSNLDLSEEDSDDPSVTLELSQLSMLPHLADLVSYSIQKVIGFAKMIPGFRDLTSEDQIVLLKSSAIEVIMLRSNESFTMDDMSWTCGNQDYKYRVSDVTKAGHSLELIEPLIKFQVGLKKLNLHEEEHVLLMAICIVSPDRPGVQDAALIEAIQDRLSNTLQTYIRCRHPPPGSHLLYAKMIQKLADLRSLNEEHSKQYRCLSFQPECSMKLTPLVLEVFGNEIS
Description: as §1

RARα = biological target: T5, RARα (Homo sapiens, UniProt P10276); assay: ΔSV-CAT reporter cotransfection assay in CV-1 cells with RARα expression plasmid, ±RA; format: cell-based; design: expressed in transfected cells; host or cells: CV-1 (monkey kidney); conditions: RA 1 μM
T5 sequence (P10276 1-462): T1 sequence (P10276 1-462)
Description: Receptor expression plasmids used in the following cotransfection assays have been described previously (pRShTRβ [see Thompson, et al., Proc. Natl. Acad. Sci. U.S.A. 86: 3494-3498 (1989)]; pRShRARα [see Giguere, et al., Nature 330: 624-629 (1987)]; pRShRARβ and pRshRARγ [see Ishikawa, et al., Mol. Endocrinol, 4: 837-844 (1990)]; and pRShVDR, [Schule, et al., Cell 61: 497-504 (1990)]. A basal reporter plasmid ΔSV-CAT was constructed by replacing the TK promoter in TK-CAT [Damm, et al., Nature 339: 593-597 (1989)] with the SphI-HindIII fragment of the SV40 early promoter. All of the recombinant CAT reporter plasmids used herein harbor a single copy of the indicated oligonucleotides at the unique HindIII site upstream of the SV40 promoter. Identity of the inserted oligonucleotides was confirmed by sequencing. To improve production of receptor proteins in COS cells, a new eukaryotic expression vector pCMX was prepared by modifying the plasmid CDM8 [Seed, B., Nature 329: 840-842 (1987)]. The CDM8 was cut with MluI and StuI in order to release the DNA fragment encoding the CMV/T7 promoter, SV40 small t intron/poly A signal, polyoma virus enhancer/origin, and SV40 enhancer/origin. The resulting fragment was ligated to a larger fragment of PvuII-digested PUC19. An internal deletion was introduced between unique BamHI and BclI sites present in the DCM8 portion. The stuffer sequence flanked by XbaI sites was replaced with a synthetic polylinker coding for 5′-KpnI/Asp718-EcoRV-BamHI -MscI-NheI-3′, followed by a stretch of 5′-[…]-3′ (SEQ ID NO:48) which can function as a universal termination signal for protein translation. The coding sequence of the luciferase [de Wet, et al., Mol. Cell. Biol. 7: 725-737 (1987)] and human TRβ, RARα, and VDR was placed in the polylinker region of the pCMX, generating pCMX-LUC, Pcmx-Htrβ, pCMX-hRARα, and pCMX-hVDR, respectively. The translation start site of the RARα was modified to […] by attaching the synthetic linker encoding a consensus translation start signal [Hollenberg, et al., Cell 55: 899-906 (1988)]. […]

VDR = biological target: T6, VDR (Homo sapiens, UniProt P11473); assay: Gel retardation DNA-binding assay with VDR-expressing COS cell extracts; design: expressed in transfected cells; host or cells: COS cells (whole-cell extract); conditions: VDR COS cell extract
T6 sequence (P11473 1-427): T4 sequence (P11473 1-427)
Description: For DNA binding assays, COS cells were cultured in DMEM with 10% calf bovine serum and transfected by the calcium phosphate method with 20 μg of the pCMX receptor expression plasmid for 6 hours followed by a glycerol shock. After incubating the transfected COS cells for another 48 hours, the cells were harvested to prepare extracts for the DNA binding assay, carried out as described by Damm et al., Nature 339: 593-597 (1989). The extracts were made in 20 mM HEPES (pH 7.4), 0.4 M KCl, 2 mM DTT and 20% glycerol. A similar method was employed to prepare a whole cell extract from F9 stem cells. For the binding, 5 μg (COS) or 10 μg (F9) of proteins was incubated on ice for 20 minutes, first in 20 mM HEPES, 80 mM KCl, 1 mM DTT, 0.1% NP40, 2.5 μg of poly dI/dC, and 10% glycerol (cold competitor oligonucleotides, when included, were added during this pre-incubation period). Then 40 fmole of ^32P-labeled oligonucleotide probe (1-2×10^5 cpm, prepared by filling-in reaction using Klenow polymerase in the presence of α-^32P-dCTP) was added to the reaction mixture, followed by incubation at room temperature for 30 minutes. The receptor-DNA complexes were resolved by electrophoresis through 5% polyacrylamide gel containing 5% glycerol at 6 V/cm at room temperature.
Finally, in vitro DNA-binding assays were carried out with COS cell extracts containing one of these receptor proteins.

| Substance | RA-dependent induction in the absence of cotransfected RAR expression vector (endogenous RA receptor) | increase of induction by cotransfection of RAR-alpha expression vector (RAR) | activation with cotransfected ER (ER) | activation with cotransfected GR (GR) | activation with cotransfected TR, fold less (TR) | activation with cotransfected vitamin D receptor, fold less [1] | RA response (in words) (RARα) | VDR binding to labeled oligonucleotide probe (VDR) |
| --- | --- | --- | --- | --- | --- | --- | --- | --- |
| 5′-AAGCTTAAG-GGTTCA-CCGAA-AGTTCA-CACGCATATATTAGCTT-3′ (SEQ ID NO:5) (AAGCTTAAGGGTTCACCGAAAGTTCACTCGCATATATTAGCTT; DNA, backbone not given here) [βRE1, oligonucleotide including the β retinoic acid response element] | robust RA-dependent induction | two-fold | failed to result in appreciable activation | failed to result in appreciable activation | 10- to 20 fold | 10- to 20 fold | – | – |
| DR-3: perfect tandem repeat of AGGTCA hexamers separated by 3 nucleotides (SEQ ID NO:25) (AGCTTCAGGTCAAGGAGGTCAGAGAGCT; DNA, backbone not given here; double-stranded DNA response element with agct overhangs, cloned into reporter) | – | – | – | – | – | – | clear activity | specific protein-DNA complex |
